Laboratory results as given in US20020028807A1, “Non-nucleoside reverse transcriptase inhibitors” (priority 2000, published 2002).

Key:
[1] = tested on: HIV coding for mutant reverse transcriptase K103N/Y181C; assay: ELISA (p24) assay of HIV replication in C8166 cell culture, K103N/Y181C virus; format: cell-based, HIV-1; settings: Human immunodeficiency virus 1, C8166, 72 h, read-out: EC50 K103N/Y181C
Protocol: (§1) Compounds of the invention were tested for their ability to inhibit HIV replication in cell culture in a 96-well plate assay. Complete RPMI 1640, consisting of RPMI 1640+10% fetal bovine serum, 10 μg/ml gentamycin and 10 μM β-mercaptoethanol was used for dilution of the compound as well as cell growth medium. The T lymphocyte cell line C8166 was infected at a multiplicity of infection of 0.001 with viruses coding for wild-type and mutant reverse transcriptase. Cells were then incubated for three days in the presence of serial dilutions of the compounds of the invention. The supernatant was pooled from eight replica wells and the concentration of extracellular p24 was determined using a commercially available HIV-1 p24 antigen assay kit (Beckman-Coulter®). The level of inhibition (% inhibition) was calculated with the following equation: [formula]

HIV-1 RT V106A = molecular target: T1, HIV-1 RT V106A (Human immunodeficiency virus type 1 group M subtype B, UniProt P03366, V705A); assay: Reverse transcriptase (RT) assay, V106A mutant; format: biochemical
T1 construct: an HIV RT clone pKRT2 containing only the RT p66 gene regulated by the lac operon/trc promoter; made in house; host or cells: E. coli JM109, vector pKK233-2
Excerpt: (§2) Among the enzymes for which Human Immunodeficiency Virus (HIV-1) encodes is a reverse transcriptase (1), so-named because it transcribes a DNA copy from an RNA template. This activity can be quantitatively measured in a cell-free enzyme assay and is based upon the observation that reverse transcriptase is able to use a synthetic template poly r(C) primed with a biotinylated oligo d(G) to transcribe a radio-labelled DNA strand utilising 3H-dGTP as a substrate. The assay described below utilises the wild-type enzyme (which is the predominant form of the enzyme observed in patients infected with HIV-1) and can also be used with mutant RT enzymes (for example, Y181C, prepared by site-directed mutagenesis in which the tyrosine residue at codon 181 has been replaced by a cysteine residue) in analogous assay conditions. This assay allows compounds to be evaluated for their effectiveness at inhibiting the mutant enzymes.
(§3) Some HIV-1 IIIB clone BH10 RT mutants were provided by Dr. C.-K. Shih (Boehringer Ingelheim Pharmaceutials Inc., U.S.A.) in the vector pKK233-2 (Pharmacia). Briefly an HIV RT clone pKRT2 containing only the RT p66 gene regulated by the lac operon/trc promoter was obtained from Dr. W. Summers (Yale University) (2). A variety of specific amino acid substitutions were introduced into the wild-type RT gene by site-directed mutagenesis. RT clones were subcloned into the pKK233-2 bacterial expression vector. Clones provided included wild-type, Val106Ala, Tyr181Cys, Tyr188Cys, Tyr188Leu, Gly190Ala and Pro236Leu. Others were made in-house by site-directed mutagenesis of the pKK233-2 RT clones including Lys103Asn, Lys103Asn/Tyr181Cys, Lys103Asn/Leu100Ile, Lys103Asn/Pro225His, and Lys103Asn/Val108Ile.
(§4) Purification of recombinant reverse transcriptase was performed using a combination of methods previously described (3). A single colony from a fresh plate of transformed JM109 cells was used to initiate growth of a pre-culture grown o/n at 37° C. Two liters of growth medium were inoculated with this pre-culture. At OD600˜1.5 (5-6 h at 37° C.), RT gene expression was induced with IPTG (1 mM final), and the fermentation was continued for a few more hours at 37° C. After centrifugation, supernatants were discarded while cell pellets were pooled and stored at −80° C. until purification. Cells were thawed at 4° C. overnight and suspended in lysis buffer (MES 50 mM pH 6, EDTA 1 mM, 10% v/v glyerol, 0.02% w/v OBG, 0.02% w/v sodium azide). Lysozyme was added and the mixture was incubated on ice for 40 minutes. After homogenization using a bounce in presence of lysozyme and sonication, the cells were centrifuged for 30 minutes. Supernatant (S1) was saved and stored at 4° C. The centrifuged pellet was resuspended in extraction buffer (MES 50 mM pH 6, KPO4 50 mM pH 6, KCl 100 mM, 10% v/v glycerol, 0.02% w/v OBG, 0.02% w/v sodium axide) and stirred for 30 minutes at 4° C. This second mixture was centrifuged again and the supernatant (S2) was saved. The above procedure was repeated 2 more times saving supernatants S3 and S4 and one last extraction was performed overnight (S5). Polymin P (0.005% final) was added to the combined supernatants to remove nucleic acids. This solution was stirred for 75 minutes at 4° C. and centrifuged for 1 h. The supernatant (SS1) was precipitated on ice with 20% w/v ammonium sulfate and stirred for 1 h at 4° C. The mixture was then centrifuged and the resulting supernatant (SS2) was precipitated with additional 40% w/v ammonium sulfate (60% total), stirred for 1 h and centrifuged again. The final pellet (P1) was stored overnight at 4° C. before undergoing purification the following day. All steps of the purification were performed at 4° C. unless otherwise stated.
(§5) Pellet (P1) was resuspended into MES 50 mM pH 6, KPO4 10 mM pH 6, KCl 100 mM, 10% v/v glycerol, 0.02% w/v OBG, 0.02% w/v sodium azide. The suspension was dialysis against the same buffer overnight using 12-14 kD MWCO dialysis tubing. […]

[2] = tested on: HIV coding for wild-type reverse transcriptase (WT RT); assay: ELISA (p24) assay of HIV replication in C8166 cell culture, wild-type RT virus; format: cell-based, HIV-1; settings: Human immunodeficiency virus 1, C8166, 72 h, read-out: EC50 WT RT
Protocol: as §1

HIV-1 RT K103N/P225H = molecular target: T2, HIV-1 RT K103N/P225H (Human immunodeficiency virus type 1 group M subtype B, UniProt P03366, K702N/P824H); assay: Reverse transcriptase (RT) assay, K103N/P225H mutant; format: biochemical
T2 construct: an HIV RT clone pKRT2 containing only the RT p66 gene regulated by the lac operon/trc promoter; made in house; host or cells: E. coli JM109, vector pKK233-2
Excerpt: as §2, §3, §4, §5

HIV-1 RT K103N = molecular target: T3, HIV-1 RT K103N (Human immunodeficiency virus type 1 group M subtype B, UniProt P03366, K702N); assay: Reverse transcriptase (RT) assay, K103N mutant; format: biochemical
T3 construct: an HIV RT clone pKRT2 containing only the RT p66 gene regulated by the lac operon/trc promoter; made in house; host or cells: E. coli JM109, vector pKK233-2
Excerpt: as §2, §3, §4, §5

[3] = tested on: HIV coding for mutant reverse transcriptase Y188L; assay: ELISA (p24) assay of HIV replication in C8166 cell culture, Y188L virus; format: cell-based, HIV-1; settings: Human immunodeficiency virus 1, C8166, 72 h, read-out: EC50 Y188L
Protocol: as §1

HIV-1 RT K103N/V108I = molecular target: T4, HIV-1 RT K103N/V108I (Human immunodeficiency virus type 1 group M subtype B, UniProt P03366, K702N/V707I); assay: Reverse transcriptase (RT) assay, K103N/V108I mutant; format: biochemical
T4 construct: an HIV RT clone pKRT2 containing only the RT p66 gene regulated by the lac operon/trc promoter; made in house; host or cells: E. coli JM109, vector pKK233-2
Excerpt: as §2, §3, §4, §5

HIV-1 RT K103N/L100I = molecular target: T5, HIV-1 RT K103N/L100I (Human immunodeficiency virus type 1 group M subtype B, UniProt P03366, K702N/L699I); assay: Reverse transcriptase (RT) assay, K103N/L100I mutant; format: biochemical
T5 construct: an HIV RT clone pKRT2 containing only the RT p66 gene regulated by the lac operon/trc promoter; made in house; host or cells: E. coli JM109, vector pKK233-2
Excerpt: as §2, §3, §4, §5

[4] = tested on: HIV coding for mutant reverse transcriptase V106A; assay: ELISA (p24) assay of HIV replication in C8166 cell culture, V106A virus; format: cell-based, HIV-1; settings: Human immunodeficiency virus 1, C8166, 72 h, read-out: EC50 V106A
Protocol: as §1

HIV-1 RT K103N/Y181C = molecular target: T6, HIV-1 RT K103N/Y181C (Human immunodeficiency virus type 1 group M subtype B, UniProt P03366, K702N/Y780C); assay: Reverse transcriptase (RT) assay, K103N/Y181C mutant; format: biochemical
T6 construct: an HIV RT clone pKRT2 containing only the RT p66 gene regulated by the lac operon/trc promoter; made in house; host or cells: E. coli JM109, vector pKK233-2
Excerpt: as §2, §3, §4, §5

HIV-1 RT wild-type (WT) = molecular target: T7, HIV-1 RT wild-type (WT) (Human immunodeficiency virus type 1 group M subtype B, UniProt P03366); assay: Reverse transcriptase (RT) assay, wild-type enzyme; format: biochemical
T7 construct: an HIV RT clone pKRT2 containing only the RT p66 gene regulated by the lac operon/trc promoter; made in house; host or cells: E. coli JM109, vector pKK233-2
Excerpt: as §2, §3, §4, §5

HIV-1 RT Y181C = molecular target: T8, HIV-1 RT Y181C (Human immunodeficiency virus type 1 group M subtype B, UniProt P03366, Y780C); assay: Reverse transcriptase (RT) assay, Y181C mutant; format: biochemical
T8 construct: an HIV RT clone pKRT2 containing only the RT p66 gene regulated by the lac operon/trc promoter; made in house; host or cells: E. coli JM109, vector pKK233-2
Excerpt: as §2, §3, §4, §5

HIV-1 RT Y188L = molecular target: T9, HIV-1 RT Y188L (Human immunodeficiency virus type 1 group M subtype B, UniProt P03366, Y787L); assay: Reverse transcriptase (RT) assay, Y188L mutant; format: biochemical
T9 construct: an HIV RT clone pKRT2 containing only the RT p66 gene regulated by the lac operon/trc promoter; made in house; host or cells: E. coli JM109, vector pKK233-2
Excerpt: as §2, §3, §4, §5

CCN1c2ncc(CCOc3cc[n+]([O-])c4ccccc34)cc2C(=O)Nc2c(C)cc(F)nc21 [compound 9, 5,11-Dihydro-11-ethyl-2-fluoro-4-methyl-8-{2-{(1-oxido-4-quinolinyl)-oxy}ethyl}-6H-dipyrido[3,2-b:2′,3′-e][1,4]diazepin-6-one]
EC50 [1]: 7.6 nM
IC50 (HIV-1 RT V106A): 98 nM
EC50 [2]: 0.92 nM
IC50 (HIV-1 RT K103N/P225H): 25 nM
IC50 (HIV-1 RT K103N): 23 nM
EC50 [3]: 118 nM
IC50 (HIV-1 RT K103N/V108I): 58 nM
IC50 (HIV-1 RT K103N/L100I): 88 nM
EC50 [4]: 5 nM
IC50 (HIV-1 RT K103N/Y181C): 175 nM
IC50 (HIV-1 RT wild-type (WT)): 14 nM
IC50 (HIV-1 RT Y181C): 43 nM
IC50 (HIV-1 RT Y188L): 3390 nM

CCN1c2ncc(CCOc3cc[n+]([O-])c4ccccc34)cc2C(=O)Nc2c(C)cc(Cl)nc21 [compound 14, 2-Chloro-5,11-dihydro-11-ethyl-4-methyl-8-{2-{(1-oxido-4-quinolinyl)-oxy}ethyl}-6H-dipyrido[3,2-b:2′,3′-e][1,4]diazepin-6-one]
IC50 (HIV-1 RT V106A): 77 nM
EC50 [2]: 0.67 nM
IC50 (HIV-1 RT K103N/P225H): 30 nM
IC50 (HIV-1 RT K103N): 19 nM
IC50 (HIV-1 RT K103N/V108I): 59 nM
IC50 (HIV-1 RT K103N/L100I): 24 nM
IC50 (HIV-1 RT K103N/Y181C): 61 nM
IC50 (HIV-1 RT wild-type (WT)): 15 nM
IC50 (HIV-1 RT Y181C): 28 nM
IC50 (HIV-1 RT Y188L): 2300 nM

CCN1c2ncc(CCOc3cccc4c3ccc[n+]4[O-])cc2C(=O)N(C)c2ccc(F)nc21 [compound 18, 5,11-Dihydro-11-ethyl-2-fluoro-5-methyl-8-{2-{(1-oxido-5-quinolinyl)-oxy}ethyl}-6H-dipyrido[3,2-b:2′,3′-e][1,4]diazepin-6-one]
EC50 [1]: 9.5 nM
IC50 (HIV-1 RT V106A): 737 nM
EC50 [2]: 0.34 nM
IC50 (HIV-1 RT K103N/P225H): 20 nM
IC50 (HIV-1 RT K103N): 37 nM
IC50 (HIV-1 RT K103N/V108I): 96 nM
IC50 (HIV-1 RT K103N/L100I): 158 nM
IC50 (HIV-1 RT K103N/Y181C): 146 nM
IC50 (HIV-1 RT wild-type (WT)): 11 nM
IC50 (HIV-1 RT Y181C): 41 nM
IC50 (HIV-1 RT Y188L): 1170 nM
